# Results published in patent EP1992347A1 (CELLZOME AG, priority 2007, dated 2008).
# Experiments:
# [1] = biological target: T1, receptor tyrosine kinase DDR1 (Homo sapiens, UniProt Q08345); experiment: kinobeads competition binding assay in K562 cell lysate (iTRAQ mass spectrometry, Western blot); conditions: at 1 µM
# T1 construct: endogenous in cells; host or cells: K562 cells / K562 cell lysate
# Procedure: From this dataset, dose-response binding profiles were computed.
# All experiments were performed in duplicate.
# FAK = FAK (Homo sapiens, UniProt Q05397); conditions: phage display studies, Fabian et al., 2005; cited from earlier work
# Sequence of FAK (Q05397 whole entry, species assumed): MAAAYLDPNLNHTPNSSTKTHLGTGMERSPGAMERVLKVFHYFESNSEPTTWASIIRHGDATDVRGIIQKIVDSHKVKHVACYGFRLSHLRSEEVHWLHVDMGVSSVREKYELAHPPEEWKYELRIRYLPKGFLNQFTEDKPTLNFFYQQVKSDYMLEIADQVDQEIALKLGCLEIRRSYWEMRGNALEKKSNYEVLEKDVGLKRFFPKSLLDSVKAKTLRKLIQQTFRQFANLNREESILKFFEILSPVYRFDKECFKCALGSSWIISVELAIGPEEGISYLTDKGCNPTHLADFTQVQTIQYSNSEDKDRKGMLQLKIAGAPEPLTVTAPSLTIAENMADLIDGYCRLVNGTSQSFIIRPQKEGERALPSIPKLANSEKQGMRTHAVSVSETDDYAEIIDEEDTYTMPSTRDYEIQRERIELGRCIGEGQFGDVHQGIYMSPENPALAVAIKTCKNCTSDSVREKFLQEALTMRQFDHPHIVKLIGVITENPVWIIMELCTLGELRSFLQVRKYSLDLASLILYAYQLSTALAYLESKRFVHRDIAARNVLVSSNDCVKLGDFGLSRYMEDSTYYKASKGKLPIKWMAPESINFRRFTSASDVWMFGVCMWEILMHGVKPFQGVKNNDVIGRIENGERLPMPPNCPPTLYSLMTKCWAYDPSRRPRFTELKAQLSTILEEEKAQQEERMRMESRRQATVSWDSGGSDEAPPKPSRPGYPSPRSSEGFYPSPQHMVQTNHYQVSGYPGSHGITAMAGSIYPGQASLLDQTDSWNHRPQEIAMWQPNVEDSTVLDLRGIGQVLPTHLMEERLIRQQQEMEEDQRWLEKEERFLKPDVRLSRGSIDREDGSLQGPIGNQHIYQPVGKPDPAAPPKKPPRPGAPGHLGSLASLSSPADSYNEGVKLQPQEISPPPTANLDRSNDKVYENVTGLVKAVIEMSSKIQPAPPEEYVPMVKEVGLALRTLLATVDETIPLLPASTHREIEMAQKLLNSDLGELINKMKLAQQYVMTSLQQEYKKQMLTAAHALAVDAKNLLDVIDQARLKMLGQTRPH
# T1 sequence (Q08345 19-913): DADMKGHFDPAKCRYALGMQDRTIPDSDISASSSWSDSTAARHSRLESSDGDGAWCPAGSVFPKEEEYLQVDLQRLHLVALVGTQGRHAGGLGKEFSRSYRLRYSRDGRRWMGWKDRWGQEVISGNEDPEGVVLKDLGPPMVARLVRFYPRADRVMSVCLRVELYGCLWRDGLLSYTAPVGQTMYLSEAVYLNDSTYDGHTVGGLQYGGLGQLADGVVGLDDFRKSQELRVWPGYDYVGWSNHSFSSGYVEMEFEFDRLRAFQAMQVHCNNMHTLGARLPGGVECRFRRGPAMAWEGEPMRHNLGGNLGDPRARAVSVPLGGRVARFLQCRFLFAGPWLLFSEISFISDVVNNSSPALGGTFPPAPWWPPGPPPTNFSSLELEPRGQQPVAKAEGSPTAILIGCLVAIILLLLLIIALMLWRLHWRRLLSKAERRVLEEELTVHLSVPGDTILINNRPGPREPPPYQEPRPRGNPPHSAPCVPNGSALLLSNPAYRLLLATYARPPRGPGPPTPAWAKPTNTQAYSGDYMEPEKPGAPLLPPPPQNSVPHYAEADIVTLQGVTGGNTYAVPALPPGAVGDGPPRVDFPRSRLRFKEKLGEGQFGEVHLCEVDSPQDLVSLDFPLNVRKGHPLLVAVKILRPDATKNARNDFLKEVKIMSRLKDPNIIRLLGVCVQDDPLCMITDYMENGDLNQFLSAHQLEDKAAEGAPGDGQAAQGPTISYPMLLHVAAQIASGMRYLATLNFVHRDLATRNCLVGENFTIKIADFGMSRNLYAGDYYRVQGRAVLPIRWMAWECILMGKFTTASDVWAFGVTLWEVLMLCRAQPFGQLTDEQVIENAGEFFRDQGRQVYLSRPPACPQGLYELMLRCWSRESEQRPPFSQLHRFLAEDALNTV
competition [1] [%],SMILES,binding to FAK (FAK)
> 50,COc1cc(Nc2c(C#N)cnc3cc(OCCCN4CCN(C)CC4)c(OC)cc23)c(Cl)cc1Cl [bosutinib],–
–,"Cc1ccc(NC(=O)c2ccc(CN3CCN(C)CC3)cc2)cc1Nc1nccc(-c2cccnc2)n1 [imatinib, 4-(4-methylpiperazin-1-ylmethyl)-N-[4-methyl-3-(4-pyridin-3-yl)pyrimidin-2-ylamino)phenylbenzamide]",no binding
